How the values were obtained:
[1] = tested on: rhabdomyosarcoma cell line (HUMENS); experiment: Survival rate of confluent HUMENS cells 15 hours after adding anticancer agent (trypan blue count); type: cell-based; conditions: FIG. 2
Experimental: 1. Cells were plated on a plate and cultured to a confluent state using a DMEM/F12 culture medium supplemented with 15% fetal bovine serum.
2. The culture medium was removed and replaced with a serum-free DMEM/F12 culture medium supplemented with a given amount of an anticancer agent, and the cells were cultured for 15 hours.
3. The culture medium was removed, and the cells were washed with Hanks' solution and detached with trypsin. The detached cells were transferred to a tube and centrifuged.
4. The supernatant was removed, and the cells were suspended in a given amount of a culture medium.
5. An aliquot of the cell suspension was taken and the same amount of trypan blue was added thereto. Then, the cells were counted using a hemocytometer.
The percentage of incorporation of a dye was counted 15 hours after adding an anticancer agent (s-PTX, s-CDDP, s-CBDCA, s-ADM, or s-CPA (all of which are in Example 8), PTX, CDDP, CBDCA, ADM, or CPA (all of which are in Comparative Example 2)) to confluent cells (HUMENS) in the same manner as in Example 7 or Comparative Example 1, except that a rhabdomyosarcoma cell line (HUMENS) established from alveolar rhabdomyosarcoma obtained from the mammary gland was used as the cells in place of NUTOS.

[2] = tested on: rhabdomyosarcoma cell line (NUTOS); experiment: Survival rate of confluent NUTOS cells 15 hours after adding anticancer agent (trypan blue count); type: cell-based, human; conditions: serum-free DMEM/F12, 15 hours, n=5, FIG. 1
Experimental: A rhabdomyosarcoma cell line (NUTOS) established from alveolar rhabdomyosarcoma developed in the tongue of a child was used. […] In FIG. 1, the horizontal axis represents the concentration (ng/ml) of the added anticancer agent and the longitudinal axis represents the survival rate (%) of the cells after 15 hours (n=5). 1. Cells were plated on a plate and cultured to a confluent state using a DMEM/F12 culture medium supplemented with 15% fetal bovine serum. 2. The culture medium was removed and replaced with a serum-free DMEM/F12 culture medium supplemented with a given amount of an anticancer agent, and the cells were cultured for 15 hours. 3. The culture medium was removed, and the cells were washed with Hanks' solution and detached with trypsin. The detached cells were transferred to a tube and centrifuged. 4. The supernatant was removed, and the cells were suspended in a given amount of a culture medium. 5. An aliquot of the cell suspension was taken and the same amount of trypan blue was added thereto. Then, the cells were counted using a hemocytometer.

NUTOS cells = experiment: Incorporation of serotonin into NUTOS cells (culture medium level, anti-serotonin antibody immunostaining); type: cell-based, human; conditions: serotonin in fetal bovine serum added to culture medium
Experimental: When fetal bovine serum containing serotonin was added to a culture medium containing this NUTOS cell line, the amount of serotonin in the culture medium was decreased. […] The detailed mechanism of this incorporation has not been elucidated yet, and also the role of serotonin incorporated therein has not been elucidated yet.

Row | Structure (SMILES) | anticancer effect (survival rate of the cells after 15 hours) [1] | anticancer effect (survival rate of the cells after 15 hours) [2] | incorporation into NUTOS cells (NUTOS cells)
1 | COc1cccc2c1C(=O)c1c(O)c3c(c(O)c1C2=O)C[C@@](O)(C(=O)CO)C[C@@H]3O[C@H]1C[C@H](N)[C@H](O)[C@H](C)O1.Cl [ADM, adriamycin] | only a slight anticancer effect | only a slight anticancer effect | –
2 | N.N.O=C([O-])C1(C(=O)[O-])CCC1.[Pt+2] [CBDCA, carboplatin] | exhibited an anticancer effect by itself | exhibited an anticancer effect by itself | –
3 | [NH2][Pt]([NH2])([Cl])[Cl] [CDDP, cisplatin] | exhibited an anticancer effect by itself | exhibited an anticancer effect by itself | –
4 | O=P1(N(CCCl)CCCl)NCCCO1 (centres unmarked) [CPA, cyclophosphamide] | exhibited an anticancer effect by itself | only a slight anticancer effect | –
5 | CC(=O)O[C@H]1C(=O)[C@@]2(C)[C@H]([C@H](OC(=O)c3ccccc3)[C@]3(O)C[C@H](OC(=O)[C@H](O)[C@@H](NC(=O)c4ccccc4)c4ccccc4)C(C)=C1C3(C)C)[C@]1(OC(C)=O)CO[C@@H]1C[C@@H]2O [PTX, paclitaxel] | exhibited an anticancer effect by itself | exhibited an anticancer effect by itself | –
6 | NCCc1c[nH]c2ccc(O)cc12 [serotonin] | – | – | specifically incorporated into the NUTOS cells

Source: patent US20140171629A1, “MEDICINAL AGENT FOR MEDICAL APPLICATIONS” (HITACHI ALOKA MEDICAL, LTD., priority 2011, published 2014)
